The record followed here is ChEMBL document CHEMBL3301361, “Experimental in vitro DMPK and physicochemical data on a set of publicly disclosed compounds”.

≈ marks a conversion by molar mass, not a printed value.

Data set [1] is described as follows: physchem. To be noted: octan-1-ol/water.
A further data set is described as follows: in vitro. To be noted: SD, HW or BN, rat, plasma.
The nature of data set [2]: physchem. To be noted: pH 7.4 buffer.

For the molecule `CC(C)(C)OC(=O)N1CCC(OCc2nc(-c3ccncc3)no2)CC1`, the logD in “physchem [1]” (pH 7.4, LogD7.4) was 3. In the data set “in vitro”, this molecule had a fraction unbound at 5 h of 0.0752. The same molecule returned a thermodynamic solubility in “physchem [2]” of 269 µM (≈ 97 µg/mL).
In turn, `NCCCCN(Cc1nc2ccccc2[nH]1)C1CCCc2cccnc21` (stereo not drawn) came in with a logD in the data set “physchem [1]” (pH 7.4, LogD7.4) of 0.83. In addition, in the data set “in vitro”, the fraction unbound at 5 h was 0.371.
Turning to `O=[N+]([O-])c1c(Nc2ccc(-n3cncn3)cc2)ncnc1N1CCC(Sc2ccccn2)CC1`, the fraction unbound at 5 h in “in vitro” is 0.0029.
As for `O=C(Nc1cccc(Cl)c1)Nc1nnc(-c2ccncc2)s1`, in “in vitro”, the fraction unbound at 5 h is 0.0046.
Still for that read-out and setting: with `Cc1cccc2cc(CN(Cc3ccco3)C(=O)Nc3cccc(C#N)c3)c(Cl)nc12` the figure was 0.0009; with `Cc1ccc(-c2nnc(Nc3ccc(C(=O)N(C)C)cc3)c3ccccc23)cc1S(=O)(=O)N(C)C`, 0.0209; with `Cc1csc2c(N3CCN(C(=O)c4ccc(C(C)(C)C)cc4)CC3)ncnc12`, 0.0043.
The same measure, in the same setting: with `COc1ccc(-c2nc(-c3ccccn3)no2)cc1` the figure was 0.0544; with `Fc1ccc(-c2cc(C(F)(F)F)nc(-n3cc(Cl)cn3)n2)cc1`, 0.0048; with `Cc1nc2ccc(NS(=O)(=O)c3ccc(C)c(C)c3)cc2s1`, 0.0024.
In turn, `Cc1ccc(S(=O)(=O)N(C)c2ccc3sc(C)nc3c2)cc1` had a fraction unbound at 5 h in the data set “in vitro” of 0.0067.
On to `CCCC(=O)Nc1ccc(Cl)c(-c2nc3ncccc3o2)c1`, for which, in “in vitro”, the unbound share (fraction unbound) at 5 h was 0.0358.
Turning to `CC(C)(C)OC(=O)NC[C@H]1CC[C@H](CNC(=O)c2cc(-c3ccc(CN)cc3)nc3ccccc23)CC1`, the fraction unbound at 5 h in the data set “in vitro” is 0.0139.
Same read-out and setting: for `CCOc1ccc2oc(C(=O)NC(CCSC)c3nc4ccccc4[nH]3)c(C)c2c1` (stereo not drawn) the value was 0.009; for `C[C@H](Nc1nc(Nc2cc(C3CC3)[nH]n2)c(F)cc1C#N)c1ccc(F)cc1`, 0.002.
In turn, `O=c1[nH]c2c(O)ccc([C@@H](O)CNCCCOCCOCCc3ccccc3)c2s1` registered a logD in the data set “physchem [1]” (pH 7.4, LogD7.4) of 1.09. Further, the fraction unbound at 5 h in “in vitro” is 0.465.
In the data set “in vitro”, `CN(C)CCC1CCN(c2cc(C(=O)NC[C@H]3CC[C@H](COC(=O)NC(C)(C)C)CC3)c3ccccc3n2)CC1` gave a fraction unbound at 5 h of 0.0328.
Still for that read-out and setting: with `CC(C)(C)OC(=O)NC[C@H]1CC[C@H](CNC(=O)c2ccnc(-c3ccccc3)c2)CC1` the figure was 0.0095; with `CC(C)(C)OC(=O)NC[C@H]1CC[C@H](CNC(=O)c2cc(-c3ccncc3)nc3ccccc23)CC1`, 0.02; with `CC(C)(C)OC(=O)NC[C@H]1CC[C@H](CNC(=O)c2cc(-c3cccc(CN)c3)nc3ccccc23)CC1`, 0.0171.
`CC(C)(C)OC(=O)NC[C@H]1CC[C@H](CNC(=O)c2cc(N3CCC(CCN)CC3)nc3ccccc23)CC1` showed a fraction unbound at 5 h in the data set “in vitro” of 0.0321.
`C[C@@H]1c2c([nH]c3ccc(C(F)(F)F)cc23)C[C@@H]2CCN(CCN3CCOCC3)C[C@H]21` had a logD in “physchem [1]” (pH 7.4, LogD7.4) of 2.87. In the data set “in vitro”, this molecule had a fraction unbound at 5 h of 0.0313.
For `O=C(c1ccc(-c2ccc(Cl)cc2)o1)N(Cc1ccccn1)c1ccc(N2CCNCC2)cc1`, the logD in “physchem [1]” (pH 7.4, LogD7.4) was determined as 3. This molecule gave a fraction unbound at 5 h in “in vitro” of 0.0219.
Regarding `COCCNCc1cccc(CCNC[C@H](O)c2ccc(O)c3[nH]c(=O)sc23)c1`, in the data set “physchem [1]” (pH 7.4, LogD7.4), the logD was determined as 0.01. Moreover, the fraction unbound at 5 h in “in vitro” was 0.197.
On to `CN(C(=O)Cc1ccc(S(C)(=O)=O)cc1)C1CCN(Cc2ccc(C(F)(F)F)cc2)CC1`, for which, in “in vitro”, the fraction unbound at 5 h is 0.16. Further, the solubility (thermodynamic) in “physchem [2]” is 363 µM (≈ 170 µg/mL).
As for `Nc1nc2ccc(C(=O)c3ccccc3)cc2[nH]1`, in “physchem [1]” (pH 7.4, LogD7.4), the logD worked out at 2.29. The molecule also showed a fraction unbound at 5 h in the data set “in vitro” of 0.0736.
The molecule `Cc1ccc(NC(=O)c2cccc(N3CCOCC3)c2)cc1-n1cnc2ccc(N3CCN(C)CC3)cc2c1=O` returned a logD in the data set “physchem [1]” (pH 7.4, LogD7.4) of 2.69. Further, the fraction unbound at 5 h in the data set “in vitro” was 0.103. In the data set “physchem [2]”, this molecule showed a solubility (thermodynamic) of 427 µM (≈ 230 µg/mL).
Regarding `CN(Cc1ccc(-c2ccccc2S(N)(=O)=O)cc1)C(=O)[C@@H]1CCC[C@H]1C(=O)NCc1ccc(OC(F)(F)F)cc1`, the fraction unbound at 5 h in the data set “in vitro” is 0.003.
Turning to `COC[C@H](C)Oc1cc(O[C@@H](C)Cc2ccccc2)cc(C(=O)Nc2ccc(C(=O)O)cn2)c1`, the logD in the data set “physchem [1]” (pH 7.4, LogD7.4) came out at 1.5. In the data set “in vitro”, the fraction unbound at 5 h was 0.0042. Also, the solubility (thermodynamic) in the data set “physchem [2]” is 1480 µM (≈ 687 µg/mL).
In turn, `CC(C)C(NC(=O)c1cc(Cl)ccc1C(F)(F)F)C(=O)c1ccc([N+](=O)[O-])cc1` (stereo not drawn) showed a fraction unbound at 5 h in “in vitro” of 0.024.
Turning to `COc1cc(-n2cnc3cc(-c4ccc(Cl)cc4)sc3c2=O)ccc1OCCN1CCCC1`, the logD in “physchem [1]” (pH 7.4, LogD7.4) stood at 2.74. For the same molecule, the fraction unbound at 5 h in the data set “in vitro” was 0.0099.
As to `Cc1c(-c2cc3ccccc3o2)oc(=O)c(C)c1O`, the fraction unbound at 5 h in “in vitro” is 0.0026.
`O=C(NCC1CCC1)c1nc(OCCOCCO)ccc1NC(=O)c1ccnc2ccccc12`: the fraction unbound at 5 h in the data set “in vitro” is 0.03.
The same measure, in the same setting: for `COc1ccc(NC(=O)c2ccnc3ccccc23)c(C(=O)NCC2CCC2)n1` the value was 0.0009; for `CC(=O)N1CCN(c2nc(N[C@H](C)c3cnc4ccccc4c3)c3c(n2)C(=O)N(C(C)C)C3)CC1`, 0.0119; for `O=S(=O)(Nc1ncns1)c1cc(F)c(Oc2cc(F)c(Cl)cc2-c2cn[nH]c2)cc1F`, 0.002.
Still for that read-out and setting: for `O=S(=O)(Nc1ncns1)c1cc(F)c(Oc2ccc(Cl)cc2-c2cn[nH]c2)cc1F` the value was 0.001.
`N#Cc1ccc2[nH]c(-c3ccc(F)cc3)c(CCCC(=O)NS(=O)(=O)C(F)(F)F)c2c1` showed a fraction unbound at 5 h in the data set “in vitro” of 0.0661. The solubility (thermodynamic) in the data set “physchem [2]” stood at 309 µM (≈ 140 µg/mL).
As to `O=[N+]([O-])c1ccc(-c2nc(-c3ccccc3)c(-c3ccccc3)[nH]2)cc1`, in “in vitro”, the fraction unbound at 5 h was 0.0006.
On the same count and under the same terms, for `C=CCN(C)CCCCCCOc1ccc(C(=O)c2ccc(Br)cc2)c(F)c1` the value was 0.0006; for `N=C(N)c1ccc2nc(-c3cccc(-c4ccccc4)c3O)[nH]c2c1`, 0.0139; for `O=C(Nc1ccccc1)Nc1nc(-c2ccccc2)cs1`, 0.0005.
In “physchem [1]” (pH 7.4, LogD7.4), `O=C(c1cc(Cc2n[nH]c(=O)c3ccccc23)ccc1F)N1CCCNCC1` came in with a logD of 0.1. The same molecule showed a fraction unbound at 5 h in “in vitro” of 0.597.
Consider `COc1cc2c(cc1OC)CN(CCc1ccc(NC(=O)c3cccc4c(=O)c5cccc(OC)c5[nH]c34)cc1)CC2`, for which the fraction unbound at 5 h in the data set “in vitro” was 0.0179.
The molecule `O=C(COc1cccc(Cl)c1)NC1CN(Cc2ccn(-c3ccc(C(F)(F)F)cc3)c2)C1` showed a fraction unbound at 5 h in the data set “in vitro” of 0.0043.
On the same count and under the same terms, with `COc1cc(C(C)C)c(Oc2cnc(N)nc2N)cc1I` the figure was 0.0383.
The molecule `O=C(CC1CCCCCC1)Nc1cccc2c(=O)n([C@H]3CCNC3)ccc12` returned a logD in “physchem [1]” (pH 7.4, LogD7.4) of 1.15. Further, the fraction unbound at 5 h in “in vitro” is 0.232.
In “physchem [1]” (pH 7.4, LogD7.4), `O=C(Cc1ccc(F)c(C(F)(F)F)c1)Nc1cccc2c(=O)n([C@@H]3CNC[C@H]3O)ccc12` returned a logD of 1.33. Besides, the fraction unbound at 5 h in “in vitro” is 0.0948.
The like results for `C[C@@](O)(C(=O)Nc1ccc(S(C)(=O)=O)cc1Cl)C(F)(F)F` were, in that order, 2.08 and 0.16.
For `COc1ccc(CN2CCc3c([nH]c4ccccc34)C2)cc1OC`, the pH-dependent lipophilicity (logD) in “physchem [1]” (pH 7.4, LogD7.4) worked out at 3.1. Further, in “in vitro”, the free fraction (fraction unbound) at 5 h was 0.0418. In the data set “physchem [2]”, this molecule came in with a solubility (thermodynamic) of 51.3 µM (≈ 16.5 µg/mL).
For `O=C(O)c1cc(O)cc(O)c1` [3,5-DIHYDROXYBENZOIC ACID], the fraction unbound at 5 h in “in vitro” is 0.824.
In turn, `COc1cc(F)c(C(C)C)cc1-c1ccc(C(F)(F)F)cc1CN1C(=O)O[C@H](c2cc(C(F)(F)F)cc(C(F)(F)F)c2)[C@@H]1C` [ANACETRAPIB] had a fraction unbound at 5 h in the data set “in vitro” of 0.0328.
The same measure, in the same setting: for `C[C@@H](O[C@H]1OCCN(Cc2n[nH]c(=O)[nH]2)[C@H]1c1ccc(F)cc1)c1cc(C(F)(F)F)cc(C(F)(F)F)c1` [APREPITANT] the value was 0.0023.
With `CNC(=O)c1ccc(Oc2ccc3c(c2)CCN(C2CCC2)CC3)nc1` [GSK189254], in the data set “physchem [1]” (pH 7.4, LogD7.4), the logD came out at 1.45. In addition, the fraction unbound at 5 h in “in vitro” was 0.523.
For `O=C(O)CCc1ccc(NCc2cccc(Oc3ccccc3)c2)cc1` [GW9508] the same measures were 2.1 and 0.0052.
`O=C(O)Cc1cn(-c2ccccc2)nc1-c1ccc(Cl)cc1` [LONAZOLAC] had a fraction unbound at 5 h in the data set “in vitro” of 0.0018.
As to `CN1CCC(N2CCN(C(=O)[C@H](NC(=O)c3ccc4cc[nH]c4c3)c3ccccc3)CC2)CC1` [LY-517717], the fraction unbound at 5 h in the data set “in vitro” is 0.54.
Same read-out and setting: for `NCCCCN(Cc1nc2ccccc2[nH]1)[C@H]1CCCc2cccnc21` [MAVORIXAFOR] the value was 0.244; for `COc1nc(C)nc(Cl)c1N=C1NCCN1` [MOXONIDINE], 0.886.
As to `O=S(=O)(Nc1nncs1)c1cc(Cl)c(Oc2ccc(C(F)(F)F)cc2-c2ccnnc2)cc1F` [PF-05186462], the logD in the data set “physchem [1]” (pH 7.4, LogD7.4) worked out at 1.15. In addition, the fraction unbound at 5 h in “in vitro” is 0.02.
Consider `O=c1[nH]c2ccccc2n1C1CCN(CCCC(c2ccc(F)cc2)c2ccc(F)cc2)CC1` [PIMOZIDE], for which, in the data set “in vitro”, the fraction unbound at 5 h is 0.003.
In the data set “physchem [1]” (pH 7.4), `CC(C)NCC(O)COc1cccc2[nH]ccc12` (stereo not drawn) [PINDOLOL] gave a logD of -0.12. The fraction unbound at 5 h in the data set “in vitro” was 0.586.
In turn, `CC(C)C[C@H](CN)CC(=O)O` [PREGABALIN] returned a fraction unbound at 5 h in “in vitro” of 0.5.
In the case of `CC(CN1c2ccccc2Sc2ccccc21)N(C)C` (stereo not drawn) [PROMETHAZINE], the logD in the data set “physchem [1]” (pH 7.4, LogD7.4) amounted to 2.67. The fraction unbound at 5 h in the data set “in vitro” is 0.0705.
In turn, `COc1ccccc1OCC(O)CN1CCN(CC(=O)Nc2c(C)cccc2C)CC1` (stereo not drawn) [RANOLAZINE] gave a fraction unbound at 5 h in “in vitro” of 0.465.
`CC[C@H](NC(=O)c1c(O)c(-c2ccccc2)nc2ccccc12)c1ccccc1` [TALNETANT] registered a logD in “physchem [1]” (pH 7.4, LogD7.4) of 3.91. Besides, in “in vitro”, the fraction unbound at 5 h was 0.0005.
For `CCC(C)(C)C(=O)O[C@H]1C[C@@H](C)C=C2C=C[C@H](C)[C@H](CC[C@@H](O)C[C@@H](O)CC(=O)O)[C@H]21` [TENIVASTATIN] the same measures were 1.55 and 0.024.
For the molecule `CCc1nn(C2CCCC2)c2c1CCn1c(-c3cccs3)nnc1-2` [TOFIMILAST], in the data set “in vitro”, the fraction unbound at 5 h is 0.0477. In “physchem [2]”, this molecule returned a thermodynamic solubility of 22.4 µM (≈ 7.6 µg/mL).
In the case of `Cc1ccc(OCC(O)C(C)NC(C)C)c2c1CCC2` (stereo not drawn) [ZENIDOLOL], in “in vitro”, the fraction unbound at 5 h was 0.216.
